# Values quoted from earlier work as cited in patent US8895729B2, “Process for making thienopyrimidine compounds” (Genentech, Inc., priority 2012, dated 2014).
# Tests used:
# [1] = not given; remark: listed apart in the source
# [2] = test system: receptor screening assay (n=68); settings: GDC-0980=10 microM
# [3] = single oral dose
# [4] = test system: PC3 PTEN-prostate xenograft; settings: mouse PC3 PTEN- prostate xenograft; 25 to 150 mg/kg qd po
# [5] = test system: MCF7.1 E545K breast xenograft; settings: mouse MCF7.1 E545K breast xenograft; 25 to 150 mg/kg qd po
# [6] = test system: MDA-MB-361.1 breast cancer xenograft
# [7] = test system: xenograft cancer models; breast, ovarian, lung, and prostate
structure (smiles),measurement,setting,value
"Cc1c(CN2CCN(C(=O)[C@H](C)O)CC2)sc2c(N3CCOCC3)nc(-c3cnc(N)nc3)nc12 [GDC-0980, (S)-1-(4-((2-(2-aminopyrimidin-5-yl)-7-methyl-4-morpholinothieno[3,2-d]pyrimidin-6-yl)methyl)piperazin-1-yl)-2-hydroxypropan-1-one]",IC50,MCF7-neo/HER2 cell line,320 nM
same,stability in human microsomes,,stable
same,stability in human hepatocytes,[1],stable
same,responses in a receptor screening assay,[2],did not elicit significant responses
same,AUC dose dependence,[3],dose-proportional increases
same,Cmax dose dependence,[3],dose-proportional increases
same,efficacy in xenograft model,[4],efficacious
same,efficacy in xenograft model,[5],efficacious
same,minimum dose producing significant growth inhibition,[6],1.0 mg/kg QD
same,activity in preclinical xenograft cancer models,[7],broad activity
